Test results reported in patent US20220289679A1, “HETEROCYCLIC COMPOUND” (Takeda Pharmaceutical Company Limited, priority 2019, published 2022).

Target: T1, human GCS (glucosylceramide synthase) (Homo sapiens, UniProt Q16739)
T1 construct: made in house; host or cells: Expi293F cells (transient expression; microsome fraction)
T1 sequence (Q16739 1-394): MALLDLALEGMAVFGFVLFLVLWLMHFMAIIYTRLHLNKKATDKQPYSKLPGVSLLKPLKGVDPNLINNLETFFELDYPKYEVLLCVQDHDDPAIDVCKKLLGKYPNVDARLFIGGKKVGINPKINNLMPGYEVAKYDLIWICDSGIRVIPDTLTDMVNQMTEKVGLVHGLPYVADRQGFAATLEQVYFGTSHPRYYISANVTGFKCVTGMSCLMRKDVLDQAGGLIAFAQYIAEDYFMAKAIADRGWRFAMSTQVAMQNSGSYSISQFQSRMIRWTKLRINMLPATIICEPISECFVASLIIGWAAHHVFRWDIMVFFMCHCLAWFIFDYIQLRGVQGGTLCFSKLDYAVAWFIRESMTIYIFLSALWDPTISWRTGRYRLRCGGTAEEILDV
Experiment: Glucosylceramide Synthase (GCS) Assay
Format: biochemical
Conditions: test compound 10 μM; microsome fraction of Expi293F cells expressing human GCS; 1.7 μM UDP-glucose, 3 μM C8 ceramide; room temperature 60 min; C8 glucosylceramide by Rapidfire MS/MS; read-out: GCS enzyme inhibitory rate at 10 μM (%)
Procedure, shortened: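 Test compounds were run at a final 10 μM against liposomal C8 ceramide (3 μM) and UDP-glucose at its Km (1.7 μM). Human GCS came as microsomes from transfected Expi293F cells, incubated 60 min at room temperature, pH 7.5. Product measured by RapidFire MS/MS; 0% and 100% inhibition were DMSO and no-enzyme wells.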

Compound | inhibition at 10 µM [%]
N#Cc1cc(F)ccc1-n1cccc(C(=O)Nc2ccc(C(O)(C(F)(F)F)C(F)(F)F)cc2)c1=O [Example 104, 1-(2-cyano-4-fluorophenyl)-N-[4-(1,1,1,3,3,3-hexafluoro-2-hydroxypropan-2-yl)phenyl]-2-oxo-1,2-dihydropyridine-3-carboxamide] | 95
CC(C)(O)COc1cc(F)ccc1-n1cccc(C(=O)Nc2ccc(C(O)(C(F)(F)F)C(F)(F)F)cc2)c1=O [Example 105, 1-[4-fluoro-2-(2-hydroxy-2-methylpropoxy)phenyl]-N-[4-(1,1,1,3,3,3-hexafluoro-2-hydroxypropan-2-yl)phenyl]-2-oxo-1,2-dihydropyridine-3-carboxamide] | 99
O=C(Nc1ccc(C(F)(F)F)nn1)c1cccn(-c2ccc(F)cc2OCC(F)(F)F)c1=O [Example 38, 1-[4-fluoro-2-(2,2,2-trifluoroethoxy)phenyl]-2-oxo-N-[6-(trifluoromethyl)pyridazin-3-yl]-1,2-dihydropyridine-3-carboxamide] | 97
O=C(Nc1ccc(C(O)C2CC2)nc1)c1cccn(-c2ccc(F)cc2OCC(F)(F)F)c1=O (racemic) [Example 75, rac-N-{6-[cyclopropyl(hydroxy)methyl]pyridin-3-yl}-1-[4-fluoro-2-(2,2,2-trifluoroethoxy)phenyl]-2-oxo-1,2-dihydropyridine-3-carboxamide] | 96
N#Cc1ccc(NC(=O)c2cccn(-c3ccccc3OCC(F)(F)F)c2=O)nc1 [Example 31, N-(5-cyanopyridin-2-yl)-2-oxo-1-[2-(2,2,2-trifluoroethoxy)phenyl]-1,2-dihydropyridine-3-carboxamide] | 92
O=C(Nc1ccc(C(O)(C(F)F)C(F)F)cc1)c1cccn(-c2ccc(F)cc2OCC(F)(F)F)c1=O [Example 78, 1-[4-fluoro-2-(2,2,2-trifluoroethoxy)phenyl]-2-oxo-N-[4-(1,1,3,3-tetrafluoro-2-hydroxypropan-2-yl)phenyl]-1,2-dihydropyridine-3-carboxamide] | 100
COc1cc(F)ccc1-n1cccc(C(=O)Nc2ccc(OC(F)F)nc2)c1=O [Example 16, N-[6-(difluoromethoxy)pyridin-3-yl]-1-(4-fluoro-2-methoxyphenyl)-2-oxo-1,2-dihydropyridine-3-carboxamide] | 69
CC(C)(O)c1ccc(NC(=O)c2cccn(-c3cc(F)c(F)cc3OCC(F)(F)F)c2=O)cc1 [Example 108, 1-[4,5-difluoro-2-(2,2,2-trifluoroethoxy)phenyl]-N-[4-(2-hydroxypropan-2-yl)phenyl]-2-oxo-1,2-dihydropyridine-3-carboxamide] | 95
CC(C)(O)c1ccc(NC(=O)c2cccn(-c3cc(F)ccc3OCC(F)(F)F)c2=O)cc1 [Example 113, 1-[5-fluoro-2-(2,2,2-trifluoroethoxy)phenyl]-N-[4-(2-hydroxypropan-2-yl)phenyl]-2-oxo-1,2-dihydropyridine-3-carboxamide] | 98
O=C(Nc1ccc(C(O)(C(F)F)C(F)F)nc1)c1cccn(-c2cc(F)c(F)cc2OCC(F)(F)F)c1=O [Example 118, 1-[4,5-difluoro-2-(2,2,2-trifluoroethoxy)phenyl]-2-oxo-N-[6-(1,1,3,3-tetrafluoro-2-hydroxypropan-2-yl)pyridin-3-yl]-1,2-dihydropyridine-3-carboxamide] | 97
CC(C)(O)c1ccc(NC(=O)c2ccnn(-c3ccccc3OCC(F)(F)F)c2=O)nc1 [Example 128, N-[5-(2-hydroxypropan-2-yl)pyridin-2-yl]-3-oxo-2-[2-(2,2,2-trifluoroethoxy)phenyl]-2,3-dihydropyridazine-4-carboxamide] | 98
O=C(Nc1ccn(-c2ccc(F)cc2)n1)c1cccn(-c2ccccc2OCC(F)(F)F)c1=O [Example 12, N-[1-(4-fluorophenyl)-1H-pyrazol-3-yl]-2-oxo-1-[2-(2,2,2-trifluoroethoxy)phenyl]-1,2-dihydropyridine-3-carboxamide] | 97
CC(C)(C#N)c1ccc(NC(=O)c2cccn(-c3ccc(F)cc3OCC(F)(F)F)c2=O)cn1 [Example 87, N-[6-(2-cyanopropan-2-yl)pyridin-3-yl]-1-[4-fluoro-2-(2,2,2-trifluoroethoxy)phenyl]-2-oxo-1,2-dihydropyridine-3-carboxamide] | 99
Cc1cc(C(=O)Nc2ccc(C(C)(C)O)cn2)c(=O)n(-c2ccccc2OCC(F)(F)F)n1 [Example 130, N-[5-(2-hydroxypropan-2-yl)pyridin-2-yl]-6-methyl-3-oxo-2-[2-(2,2,2-trifluoroethoxy)phenyl]-2,3-dihydropyridazine-4-carboxamide] | 99
Cc1cc(C(=O)Nc2ccc(C(O)(C(F)F)C(F)F)nc2)c(=O)n(-c2ccccc2OCC(F)F)n1 [Example 109, 2-[2-(2,2-difluoroethoxy)phenyl]-6-methyl-3-oxo-N-[6-(1,1,3,3-tetrafluoro-2-hydroxypropan-2-yl)pyridin-3-yl]-2,3-dihydropyridazine-4-carboxamide] | 100
CC(C)(O)c1ccc(NC(=O)c2ccnn(-c3ccccc3OCC(F)F)c2=O)cc1 [Example 133, 2-[2-(2,2-difluoroethoxy)phenyl]-N-[4-(2-hydroxypropan-2-yl)phenyl]-3-oxo-2,3-dihydropyridazine-4-carboxamide] | 100
O=C(Nc1ccc(C(F)(F)F)nc1)c1cccn(-c2ccccc2OCC(F)(F)F)c1=O [Example 20, 2-oxo-1-[2-(2,2,2-trifluoroethoxy)phenyl]-N-[6-(trifluoromethyl)pyridin-3-yl]-1,2-dihydropyridine-3-carboxamide] | 100
O=C(Nc1cnc(C(F)(F)F)cn1)c1cccn(-c2ccc(F)cc2OCC(F)(F)F)c1=O [Example 37, 1-[4-fluoro-2-(2,2,2-trifluoroethoxy)phenyl]-2-oxo-N-[5-(trifluoromethyl)pyrazin-2-yl]-1,2-dihydropyridine-3-carboxamide] | 83
Cc1cc(C(=O)Nc2ccc(C(C)(C)O)nc2)c(=O)n(-c2ccccc2OCC(F)(F)F)n1 [Example 129, N-[6-(2-hydroxypropan-2-yl)pyridin-3-yl]-6-methyl-3-oxo-2-[2-(2,2,2-trifluoroethoxy)phenyl]-2,3-dihydropyridazine-4-carboxamide] | 99

More lines, now with the values ahead:

inhibition at 10 µM [%] | Compound
100 | O=C(Nc1ccc(C(O)(C(F)F)C(F)F)nc1)c1cn(C(F)F)nc(-c2ccccc2OCC(F)F)c1=O [Example 177, 6-[2-(2,2-difluoroethoxy)phenyl]-2-(difluoromethyl)-5-oxo-N-[6-(1,1,3,3-tetrafluoro-2-hydroxypropan-2-yl)pyridin-3-yl]-2,5-dihydropyridazine-4-carboxamide]
100 | CC(C)(O)c1ccc(NC(=O)c2cn(C(F)F)nc(-c3ccccc3OCC(F)F)c2=O)cc1 [Example 161, 6-[2-(2,2-difluoroethoxy)phenyl]-2-(difluoromethyl)-N-[4-(2-hydroxypropan-2-yl)phenyl]-5-oxo-2,5-dihydropyridazine-4-carboxamide]
83 | Cc1cc(C(=O)Nc2ccc(C(C)(C)O)cc2C#N)c(=O)n(-c2ccccc2OCC(F)F)n1 [Example 154, N-[2-cyano-4-(2-hydroxypropan-2-yl)phenyl]-2-[2-(2,2-difluoroethoxy)phenyl]-6-methyl-3-oxo-2,3-dihydropyridazine-4-carboxamide]
100 | O=C(Nc1ccc(C(O)(C(F)F)C(F)F)cc1)c1ccnn(-c2ccccc2OCC(F)F)c1=O [Example 153, 2-[2-(2,2-difluoroethoxy)phenyl]-3-oxo-N-[4-(1,1,3,3-tetrafluoro-2-hydroxypropan-2-yl)phenyl]-2,3-dihydropyridazine-4-carboxamide]
99 | Cc1cc(C(=O)Nc2ccc(C(C)(C)O)cn2)c(=O)n(-c2ccccc2OCC(F)F)n1 [Example 137, 2-[2-(2,2-difluoroethoxy)phenyl]-N-[5-(2-hydroxypropan-2-yl)pyridin-2-yl]-6-methyl-3-oxo-2,3-dihydropyridazine-4-carboxamide]
100 | O=C(Nc1ccc(C(O)(C(F)F)C(F)F)nc1)c1ccnn(-c2ccccc2OCC(F)(F)F)c1=O [Example 162, 3-oxo-N-[6-(1,1,3,3-tetrafluoro-2-hydroxypropan-2-yl)pyridin-3-yl]-2-[2-(2,2,2-trifluoroethoxy)phenyl]-2,3-dihydropyridazine-4-carboxamide]
99 | CC(O)c1ccc(NC(=O)c2ccnn(-c3ccccc3OCC(F)(F)F)c2=O)cc1 (racemic) [Example 138, rac-N-[4-(1-hydroxyethyl)phenyl]-3-oxo-2-[2-(2,2,2-trifluoroethoxy)phenyl]-2,3-dihydropyridazine-4-carboxamide]
97 | Cc1cc(C(C)(C)O)ccc1NC(=O)c1ccnn(-c2ccccc2OCC(F)F)c1=O [Example 143, 2-[2-(2,2-difluoroethoxy)phenyl]-N-[4-(2-hydroxypropan-2-yl)-2-methylphenyl]-3-oxo-2,3-dihydropyridazine-4-carboxamide]
